Where two headings read alike, the source gives them in different places.
Tests used:
[1] = molecular target: recombinant tick kinin receptor (BMLK3) (Rhipicephalus microplus, UniProt Q9NHA4); test: Dose-response dual-addition calcium fluorescence assay on BMLK3 cells; type: cell-based; settings: for inhibition at 12 µM: read-out: Inhibitory Efficacy at 12 μM; for activity type in dose-response assay, in words: Rhimi-K-1 1 μmol L^−1; for validation mark in dose-response assay: Table 3
[2] = system: Human dermal fibroblasts (HDF) cells; test: Cytotoxicity assay (resazurin); type: cell-based
[3] = system: vector-only (V/O) CHO-K1 cells; test: Dose-response dual-addition calcium fluorescence assay on vector-only cells; type: cell-based
[4] = system: R. microplus kinin receptor; test: High-throughput dual-addition calcium fluorescence screen on BMLK3 cells; type: cell-based, Rhipicephalus microplus; settings: for antagonist Io (%): compound 2 μmol L^−1, 5 min, then FFFSWGa 500 nmol L^−1; for agonist NPA (%): compound 2 μmol L^−1, first addition, relative to FFFSWGa 500 nmol L^−1
[5] = virtual hit molecules, dual-addition assay, recombinant tick kinin receptor (BMLK3) cells, read-out: BMLK3 EC50
[6] = virtual hit molecules, dual-addition assay, recombinant tick kinin receptor (BMLK3) cells, read-out: BMLK3 antagonist IC50
[7] = Human dermal fibroblasts cells, tested at 20 μcool L^−1
[8] = Cricetulus griseus, CHO-K1, summary of 36 validated antagonist hits, vector-only cell (V/O)
[9] = first addition, 20 concentrations 28 nM-25 μM, read-out: BMLK3 EC50
[10] = second addition Rhimi-K-1 1 μmol L^−1, read-out: BMLK3 IC50
[11] = summary of 36 validated antagonist hits, BMLK3 cells, read-out: BMLK3 EC50
[12] = summary of 36 validated antagonist hits, BMLK3 cells, read-out: BMLK3 IC50
[13] = V/O cells, second addition Rhimi-K-1 1 μmol L^−1, read-out: V/O antagonist IC50
[14] = summary of 36 validated antagonist hits, vector-only cell (V/O)
[15] = virtual hit molecules, dual-addition assay, vector-only cell (V/O)
[16] = virtual hit molecules, dual-addition assay, vector-only cell (V/O), read-out: V/O antagonist IC50
[17] = Table 5 analogs, first addition, read-out: BMLK3 EC50
[18] = Table 5 analogs, second addition Rhimi-K-1 1 μmol L^−1, read-out: BMLK3 antagonist IC50
[19] = Table 5 analogs, V/O cells, read-out: V/O antagonist IC50

recombinant tick kinin receptor (BMLK3), sequence (Q9NHA4 entry or part of it): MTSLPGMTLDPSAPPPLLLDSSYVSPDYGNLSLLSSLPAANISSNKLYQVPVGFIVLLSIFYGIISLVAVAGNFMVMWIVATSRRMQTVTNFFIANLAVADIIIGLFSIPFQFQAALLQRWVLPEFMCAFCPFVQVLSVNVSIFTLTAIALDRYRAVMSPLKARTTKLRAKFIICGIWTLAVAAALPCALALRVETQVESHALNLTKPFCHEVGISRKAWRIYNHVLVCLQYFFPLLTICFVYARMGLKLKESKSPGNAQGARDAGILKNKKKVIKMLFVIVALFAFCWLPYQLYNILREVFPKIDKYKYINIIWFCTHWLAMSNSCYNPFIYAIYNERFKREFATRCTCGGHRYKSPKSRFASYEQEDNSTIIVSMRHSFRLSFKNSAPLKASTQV

| Structure (SMILES) | Inhibitory Efficacy at 12 μM ([1]; 12 μM, BMLK3 cells) [%] | EC50 [1, 9] [µM] | IC50 [1, 10] [µM] | EC50 [1, 11] [µM] | IC50 [1, 12] [µM] | HDF average % growth inhibition [2, 7] [%] | EC50 ([3]; V/O cells, first addition) [µM] | IC50 [3, 13] [µM] | EC50 [3, 14] [µM] | IC50 [3, 14] [µM] | validation mark in dose-response assay [1] | also measured |
| --- | --- | --- | --- | --- | --- | --- | --- | --- | --- | --- | --- | --- |
| COc1ccc(S(=O)(=O)Nc2ccc(O)c(Sc3nc4ccccc4s3)c2)cc1 [SACC-0089495] |  |  |  |  |  | −2.817 |  |  |  |  |  | inhibition at 12 µM ([1]; 12 μM, BMLK3 cells): 71.3%; EC50 [1, 5]: 3.04 µM; IC50 [1, 6]: 6.53 µM; IC50 [3, 8]: 5.99 µM; EC50 ([3]; Cricetulus griseus, CHO-K1, virtual hit molecules, dual-addition assay, vector-only cell (V/O)): 9.06 µM; IC50 ([3]; Cricetulus griseus, CHO-K1, virtual hit molecules, dual-addition assay, vector-only cell (V/O), read-out: V/O antagonist IC50): 5.99 µM |
| O=C1C=CC(Nc2ccc([N+](=O)[O-])cc2)C1Nc1ccc([N+](=O)[O-])cc1 (centres unmarked) [SACC-0121252] | 42.68 | 0.177 | > 25 | 0.177 | > 25 | 4.83 | > 25 | 2.53 | > 25 | 2.53 |  |  |
| Cc1ccc(-c2csc3ncnc(NCc4ccco4)c23)cc1 [SACC-0033457] | 55.73 | 0.122 | 14.8 | 0.122 |  | 8.023 | 11.5 | 0.679 |  |  |  | antagonist Io (%) [4]: 63% |
| CSc1nc2ccc(NS(=O)(=O)c3ccc(Cl)s3)cc2s1 [SACC-0099442] | 71.31 |  |  | 5.4 | 7.17 | −1.16 |  |  | 10.8 | 1.12 |  | activity type in dose-response assay, in words ([1]; BMLK3 cells): full agonist; EC50 [1, 5]: 5.4 µM; IC50 [1, 6]: 7.17 µM; EC50 [3, 15]: 10.8 µM; IC50 [3, 16]: 1.12 µM |
| Cc1csc2ncnc(NCCc3ccc(Cl)cc3)c12 [SACC-0039590] | 69.87 |  |  |  |  | −13.23 |  |  | 1.63 | 5.58 |  | EC50 [3, 15]: 1.63 µM; IC50 [3, 16]: 5.58 µM |
| C/N=c1\[nH]c2cc([N+](=O)[O-])c([N+](=O)[O-])cc2[nH]\c1=N\C [SACC-0010666] |  |  |  |  |  |  |  |  |  |  |  | EC50 [1]: 0.914 µM; IC50 [1]: 0.808 µM; inhibition at 12 µM [1]: 4.47%; HDF average % growth inhibition ([2]; human, 48 h, 20 μmol L^−1): −4.62%; EC50 ([3]; Cricetulus griseus, CHO-K1, V/O cells, first addition): 1.35 µM; IC50 ([3]; Cricetulus griseus, CHO-K1, V/O cells, second addition Rhimi-K-1 1 μmol L^−1, read-out: V/O antagonist IC50): 14.9 µM; IC50 [3, 8]: 14.9 µM |
| Cc1ccc(C=C2SC(=S)N(NS(=O)(=O)c3ccc(C)cc3)C2=O)cc1 [SACC-0412061] | 48.16 |  |  | 0.978 | 0.509 | −1.013 |  |  | 5.5 | 2.71 |  | activity type in dose-response assay, in words ([1]; BMLK3 cells): partial antagonists; EC50 [1, 17]: 0.978 µM; IC50 [1, 18]: 0.509 µM; EC50 ([3]; Table 5 analogs, V/O cells): 5.5 µM; IC50 [3, 19]: 2.71 µM |
| C=CCn1cnnc1SCC1CC1(Cl)Cl (centres unmarked) [SACC-0063031] |  | 0.246 | 0.242 |  |  |  | 17 | 4.45 |  |  | *** (molecules which are either off-target or of low activity (<25 μM)) | antagonist Io (%) [4]: 80% |
| Cc1ccc(S(=O)(=O)NN2C(=O)C(=Cc3ccc(F)cc3)SC2=S)cc1 [SACC-0412063] | 0.61 |  |  | 24.2 | 0.627 | 2.277 |  |  | 1.21 | > 25 |  | activity type in dose-response assay, in words ([1]; BMLK3 cells): very weak partial antagonists; EC50 [1, 17]: 24.2 µM; IC50 [1, 18]: 0.627 µM; EC50 ([3]; Table 5 analogs, V/O cells): 1.21 µM; IC50 [3, 19]: > 25 µM |
| CCCCCCCCn1c2c(c(=N)c3c1CCC3)CCCC2 [SACC-0050177] | 35.48 | 7.08 | > 25 | 7.08 | > 25 | 38.55 | > 25 | 12.3 | > 25 | 12.3 |  |  |
| COc1ccccc1NC(=O)c1cn(CCC#N)nc1-c1ccc(C)c(C)c1 [SACC-0095111] |  | > 25 | 3.32 |  |  |  | > 25 | 7.33 |  |  | *** (molecules which are either off-target or of low activity (<25 μM)) | agonist NPA (%) [4]: 71% |
| Cc1n[nH]c(C)c1N1C(=O)c2cccc3c(N4CCCCCC4)ccc(c23)C1=O [SACC-0027895] |  | > 25 | > 25 |  |  |  | > 25 | > 25 |  |  | *** (molecules which are either off-target or of low activity (<25 μM)) | agonist NPA (%) [4]: 84% |

Continued, in another order:

| Inhibitory Efficacy at 12 μM ([1]; 12 μM, BMLK3 cells) [%] | EC50 [1, 9] [µM] | IC50 [1, 10] [µM] | EC50 [1, 11] [µM] | IC50 [1, 12] [µM] | Structure (SMILES) | HDF average % growth inhibition [2, 7] [%] | EC50 ([3]; V/O cells, first addition) [µM] | IC50 [3, 13] [µM] | EC50 [3, 14] [µM] | IC50 [3, 14] [µM] | validation mark in dose-response assay [1] | also measured |
| --- | --- | --- | --- | --- | --- | --- | --- | --- | --- | --- | --- | --- |
| 37.34 |  |  | < 0.0285 | 3.69 | CCN1C=C/C(=C\C=C\c2cc[n+](CC)c3ccccc23)c2ccccc21 [SACC-0054132] | 9.037 |  |  | 2.56 | 0.207 |  | EC50 [1, 5]: < 0.0285 µM; IC50 [1, 6]: 3.69 µM; EC50 [3, 15]: 2.56 µM; IC50 [3, 16]: 0.207 µM |
| 33.05 | > 25 | 17.3 | > 25 | 17.3 | C[C@@](O)(C#Cc1ccccc1)c1ccc(N2CCCCC2)c(F)c1 [SACC-0006795] | −1.773 | < 0.0285 | > 25 | < 0.0285 | > 25 |  | antagonist Io (%) [4]: 55% |
|  | 4.55 | > 25 |  |  | CCOc1ccc(NC(=N)/N=c2/nc(C(F)(F)F)cc(C)[nH]2)cc1 [SACC-0060049] |  | 1.93 | 0.243 |  |  | *** (molecules which are either off-target or of low activity (<25 μM)) | agonist NPA (%) [4]: 104% |
| 26.16 |  |  | 1.96 | 6.22 | Cc1ccc(S(=O)(=O)Nc2ccc3nc(N)sc3c2)cc1 [SACC-0034373] | −7 |  |  | 2.49 | > 25 |  | EC50 [1, 5]: 1.96 µM; IC50 [1, 6]: 6.22 µM; EC50 [3, 15]: 2.49 µM; IC50 [3, 16]: > 25 µM |
|  | 1.78 | 1.42 |  |  | CC(=O)c1cc(C(=O)N[C@H](C)c2nc(-c3cccnc3)n[nH]2)cs1 [SACC-0007370] |  | < 0.0285 | > 25 |  |  | *** (molecules which are either off-target or of low activity (<25 μM)) | antagonist Io (%) [4]: 60% |
|  | 7.77 | < 0.0285 |  |  | Cc1cccc(NC(=O)c2c(F)c(F)c(F)c(F)c2F)n1 [SACC-0037442] |  | > 25 | 7.18 |  |  | *** (molecules which are either off-target or of low activity (<25 μM)) | antagonist Io (%) [4]: 52% |
|  | 2.95 | 7.17 |  |  | Cc1ccc(-c2ccsc2C(=O)Nc2ccc3c(c2)CCO3)cc1 [SACC-0033336] |  | 4.34 | > 25 |  |  | *** (molecules which are either off-target or of low activity (<25 μM)) | agonist NPA (%) [4]: 51% |
| 59.47 | 5.73 | 8.51 | 5.73 | 8.51 | O=C(O)COc1ccc(Br)cc1/C=N/Nc1cccc2cccnc12 [SACC-0126875] | 7.477 | 4.61 | > 25 | 4.61 | > 25 |  |  |
|  | 4.32 | 6.3 |  |  | CC(C)(C)c1ccc(C(=O)NNC(=S)NC(=O)c2cccnc2)cc1 [SACC-0015467] |  | 3.45 | 7.1 |  |  | *** (molecules which are either off-target or of low activity (<25 μM)) | agonist NPA (%) [4]: 70% |
|  | 0.684 | 0.363 |  |  | NC(N)=N/C(N)=N\c1ccc(Br)cc1 [SACC-0108986] |  | 0.132 | 3.87 |  |  | *** (molecules which are either off-target or of low activity (<25 μM)) | antagonist Io (%) [4]: 53% |
|  | > 25 | > 25 |  |  | COc1ccc(-c2nc(CN3CCN(C(=O)c4ccc5c(c4)NC(=O)[C@H](C)S5)CC3)cs2)cc1 [SACC-0088454] |  | > 25 | 14.4 |  |  | *** (molecules which are either off-target or of low activity (<25 μM)) | antagonist Io (%) [4]: 57% |
|  | 6.76 | 6.02 |  |  | CCOC(=O)c1[nH]c2ccc(Br)cc2c1N=C(C)N(C)C [SACC-0055903] |  | 3.68 | 2.63 |  |  | *** (molecules which are either off-target or of low activity (<25 μM)) | agonist NPA (%) [4]: 75% |
|  | 0.974 | 1.88 |  |  | COc1ccccc1NC(=O)c1cc2ccccc2cc1OCc1nnnn1C1CC1 [SACC-0095102] |  | < 0.0285 | 2.21 |  |  | *** (molecules which are either off-target or of low activity (<25 μM)) | agonist NPA (%) [4]: 145% |

Source: US20240251785A1, “SMALL MOLECULE ANTAGONISTS AND AGONISTS OF ARTHROPOD KININ RECEPTORS FOR PEST CONTROL” (The Texas A&M University System, priority 2021, published 2024)
